Patent US6031004A, “Salts of metformin and method” (Bristol-Myers Squibb Company, priority 1999, dated 2000)
Structures can show the parent of a compound that is named as a salt. Where two headings read alike, the source gives them in different places.

Experiments:
[1] = hygroscopicity / moisture uptake at 95% relative humidity by Dynamic Vapour Sorption (DVS); type: physicochemical; settings: for % moisture uptake, 30 min / % moisture uptake, 70 min / % moisture uptake, 3 hours / % moisture uptake, 6 hours: DVS; for moisture uptake equilibrium reached or not: at the last time point (6 hours; 30 min for succinate)
Experimental: The following experiment was carried out to determine moisture sorption/desorption profiles of metformin (2:1) fumarate salt and metformin (2:1) succinate salt compared to the moisture uptake properties of metformin hydrochloride salt.
The hygroscopicity of metformin salts was assessed by Dynamic Vapour Sorption (DVS), a means of rapidly assessing sample moisture uptake properties. […] […] The weight increase of sample at each condition is recorded until a defined minimal rate of mass change is reached or a specified time period for equilibrium exceeded.

[2] = compaction susceptibility (tendency of the salt to compact under its own weight); type: physicochemical
[3] = 95% relative humidity/25° C., hydrochloride

Compound | equilibrium moisture content after 30 minutes (summary) ([1]; 95% relative humidity at 25° C., 30 minutes) | % moisture uptake, 30 min ([1]; 95% relative humidity/25° C.) | hygroscopicity, moisture uptake at 30 minutes ([1]; 95% relative humidity/25° C., 30 minutes) | hygroscopicity, moisture uptake at 6 hours ([1]; 95% relative humidity/25° C.) | moisture uptake equilibrium reached or not ([1]; 95% relative humidity/25° C.) | compaction susceptibility [2] | moisture content after 6 hours (summary) ([1]; 95% relative humidity at 25° C.) | % moisture uptake, 70 min ([1]; 95% relative humidity/25° C.) | % moisture uptake, 3 hours ([1]; 95% relative humidity/25° C.) | % moisture uptake, 6 hours ([1]; 95% relative humidity/25° C.) | moisture content after 6 hours (summary) ([1]; 95% relative humidity at 25° C., hydrochloride) | % moisture uptake, 30 min [1, 3] | % moisture uptake, 70 min [1, 3] | % moisture uptake, 3 hours [1, 3] | % moisture uptake, 6 hours [1, 3] | hygroscopicity, moisture uptake at 6 hours [1, 3] | moisture absorbed compared to the metformin (2:1) fumarate and succinate salts ([1]; vs metformin (2:1) fumarate and succinate salts, 95% relative humidity) | compaction susceptibility ([2]; hydrochloride)
CN(C)C(=N)NC(=N)N [metformin (2:1) succinate] | 0.27% | 0.27% | less than 1 % moisture uptake | less than 7 % moisture uptake | reach equilibrium | low compaction susceptibility |  |  |  |  |  |  |  |  |  |  |  | 
CN(C)C(=N)N=C(N)N [metformin (2:1) fumarate] |  | 1.0% |  | less than 7 % moisture uptake |  | low compaction susceptibility | 6.6% | 2.0% | 4.1% | 6.6% |  |  |  |  |  |  |  | 
CN(C)C(=N)N=C(N)N [metformin hydrochloride, reference compound] |  |  |  |  | did not reach equilibrium |  |  |  |  |  | 20% | 1.2% | 3.3% | 10.0% | 20.1% | greater than 20 % moisture uptake | substantially greater amounts of moisture | high compaction susceptibility
